Measured values taken from PubChem BioAssay (NCI).
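Protocol summary: plate cells (96-well), add compound at 5 concentrations, incubate 48 h, interpolate endpoints linearly. TGI is the concentration that stops growth completely.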

What was measured:
Assay in all cases: growth of human tumour cells (NCI), 48 h
HCT-15 colon = tested on: HCT-15 colon
MOLT-4 leukemia = tested on: MOLT-4 leukemia
SF-539 CNS = tested on: SF-539 CNS
SNB-75 CNS = tested on: SNB-75 CNS
EKVX NSCLC = tested on: EKVX NSCLC
SK-OV-3 ovarian = tested on: SK-OV-3 ovarian
HCC-2998 colon = tested on: HCC-2998 colon
SN12C renal = tested on: SN12C renal
COLO 205 colon = tested on: COLO 205 colon
SR leukemia = tested on: SR leukemia

Row | Compound | TGI (HCT-15 colon) [µM] | TGI (MOLT-4 leukemia) [µM] | TGI (SF-539 CNS) [µM] | TGI (SNB-75 CNS) [µM] | TGI (EKVX NSCLC) [µM] | TGI (SK-OV-3 ovarian) [µM] | TGI (HCC-2998 colon) [µM] | TGI (SN12C renal) [µM] | TGI (COLO 205 colon) [µM] | TGI (SR leukemia) [µM]
1 | CO[C@]12CC(=O)C3(C(C[C@H]4CC5CC[C@H]6C[C@@H](OC(C)=O)CC[C@]6(OC(C)=O)C5C[C@@]43C)C1)C1C[C@H]3[C@@H]4CC[C@H]5C[C@@H](OC(C)=O)CC[C@]5(OC(C)=O)[C@H]4CC[C@]3(C)C12 (stereo not given in full) | > 100 | > 100 | > 100 | > 100 | > 100 | > 100 | > 100 | > 100 | > 100 | > 100
2 | COc1cc(/C=C/C(=N\NC(=S)NN)c2sc(NNC(C)=O)nc2C)ccc1O | > 100 | > 100 | > 100 | > 100 | > 100 | > 100 | > 100 | > 100 | > 100 | > 100
3 | Cc1ccc(NC(=O)/C(=N/NC(=O)C[N+](C)(C)C)c2nc3ccccc3[nH]c2=O)cc1 | > 100 | > 100 | > 100 | > 100 | > 100 | > 100 | > 100 | > 100 | > 100 | > 100
4 | Cn1cnc(SC2=C3C(=O)C=C4S[C@H]5C[C@]42c2c(c(O)c4c6c2=[N+]3CCC=6C=N4)N5)c1CC(N)C(=O)O (stereo not given in full) | > 100 | 33.7 | 31.8 | 34.1 | 32.9 | 52.8 | 29.8 | 10.2 | 4.44 | 48.8
